The results in this text go back to patent US20080293583A1, “Methods for diagnosing mood disorders” (Wyeth, priority 2003, published 2008).

What all share (type): in vivo
Assay [1] deals with Hippocampal Cholinergic Neurostimulating peptide (PEBP; HCNP; Raf kinase inhibitor protein). The experiment in a line: 2-DE proteome analysis of rat hippocampus: HCNP. Particulars: rat hippocampus cytosolic extract, 10 mg/kg i.p. daily 14 days, vs control; gel spot 60. The protocol: (§1) Animal dosing. Adult male Sprague Dawley rats weighing 230-320 g were housed with ad libitum access to food and water. After 1 week of habituation, rats were administered either an antidepressant or vehicle alone. The following drugs were administered intraperitoneally (i.p.): fluoxetine (10 mg/kg daily), venlafaxine (10 mg/kg daily) or vehicle alone (1 ml/kg normal saline daily) for 14 days (n=3 rats per group).
(§2) Sample preparation and cytosolic protein extraction. The animals were euthanized and hippocampi were rapidly dissected from the whole brain. Samples from each treatment group were pooled and stored at −85° C. Cytosolic extracts were prepared using the universal extraction kit from Sigma (prot-two) as follows: soluble cytoplasmic extraction reagent (S2688) was added to the hippocampal tissue (10 ml/250 mg wet weight). […]
(§3) Two-dimensional gel electrophoresis. […] Molecular masses were determined by running standard protein markers (Genomic Solutions Inc.), covering the range 10-200 kDa as well as internal verification via landmark proteins within the gel. […]
(§4) Protein fixation, silver staining and 2-D gel comparisons. […] Protein spots were outlined (first automatically and then manually) and quantified using the HT analyzer v2.2 software (Genomic Solutions Inc.). The software calculated the relative spot volume of the proteins compared with the total amount of protein in the gel. […]

The subject of assay [2] is Proteasome subunit alpha type 2 (Multicatalytic endopeptidase complex subunit C3). The experiment in a line: 2-DE proteome analysis of rat hippocampus: Proteasome subunit alpha type 2. Particulars: rat hippocampus cytosolic extract, 10 mg/kg i.p. daily 14 days, vs control. The protocol: as §1
Sample preparation and cytosolic protein extraction. The animals were euthanized and hippocampi were rapidly dissected from the whole brain. Samples from each treatment group were pooled and stored at −85° C. Cytosolic extracts were prepared using the universal extraction kit from Sigma (prot-two) as follows: soluble cytoplasmic extraction reagent (S2688) was added to the hippocampal tissue (10 ml/250 mg wet weight). Samples were sonicated (4 times at 30 seconds) and centrifuged for 45 minutes (14,000 g) at 4° C. The supernatant was decanted and stored on ice. Ten milliliters of the soluble cytoplasmic extraction reagent was added to the remaining pellet and the sonication and centrifugation steps were repeated. The supernatant was decanted, combined with the previous supernatant and SpeedVac (Savant Instruments, Halbrook, N.Y.) dried. Each sample was dissolved in 2 ml of 2-D lysis buffer (6 M urea, 2 M thiourea, 4% CHAPS, 40 mM Tris, 65 mM dithiothreitol (DTT), 1 mM sodium vanadate, 1 mM sodium fluoride, protease inhibitor tablet (#1836145, Roche)), concentrated and desalted (Centricon tube; 6500 rpm) at 10° C. for 12 hours.
Two-dimensional gel electrophoresis. First dimensional isoelectric focusing (IEF) was performed on 18 cm IPG strips (pH 4-7) using an IPGphor unit (Amersham Pharmacia). Each strip was rehydrated for 16 hours with sample lysate (˜500 ug) in a final volume of 400 uL of IEF solution (10 uL of bromophenol blue (0.25% w/v); 2 uL of Ampholyte (pH 4-7, Amersham #17-6000-86); 2-D lysis buffer). […] The strips were then subjected to a two-step equilibration (50 mM Tris; 2% SDS; 30% glycerol) in (A) 0.5% DTT (Bio-Rad) and (B) 4.5% iodoacetamide (Sigma) buffers before proceeding to SDS-PAGE. […] Molecular masses were determined by running standard protein markers (Genomic Solutions Inc.), covering the range 10-200 kDa as well as internal verification via landmark proteins within the gel. […]
as §4

In assay [3] the test system is Transcription Initiation factor IIA Gamma Chain. The experiment in a line: 2-DE proteome analysis of rat hippocampus: TFIIA Gamma Chain. The following applies: rat hippocampus cytosolic extract, 10 mg/kg i.p. daily 14 days, vs control; gel spot 88. The protocol: as §1, §2, §3, §4
The subject of assay [4] is Pyruvate Dehydrogenase E1 component beta subunit, mitochondrial (precursor). The experiment in a line: 2-DE proteome analysis of rat hippocampus: Pyruvate Dehydrogenase E1 beta. Particulars: rat hippocampus cytosolic extract, 10 mg/kg i.p. daily 14 days, vs control; gel spot 26. The protocol: as §1, §2, §3, §4
For assay [5], the system named is 60S Ribosomal Protein L18A. The experiment in a line: 2-DE proteome analysis of rat hippocampus: Ribosomal Protein L18A. The following applies: rat hippocampus cytosolic extract, 10 mg/kg i.p. daily 14 days, vs control; gel spot 58. The protocol:
as §1, §2, §3, §4

Assay [6] deals with 60S Ribosomal Protein L35A. The experiment in a line: 2-DE proteome analysis of rat hippocampus: Ribosomal Protein L35A. Particulars: rat hippocampus cytosolic extract, 10 mg/kg i.p. daily 14 days, vs control; gel spot 92. The protocol: as §1, §2, §3, §4
Assay [7] deals with IGF-1 A precursor. The experiment in a line: 2-DE proteome analysis of rat hippocampus after antidepressant treatment: IGF-1 A precursor. Particulars: rat hippocampus cytosolic extract, 10 mg/kg i.p. daily 14 days, vs control; gel spot 87. The protocol: as §1, §2, §3, §4

Take `CNCCC(Oc1ccc(C(F)(F)F)cc1)c1ccccc1` (stereo not shown) [Fluoxetine, fluoxetine]: the “Fold change, Hippocampal Cholinergic Neurostimulating peptide (PEBP; HCNP)” value in assay [1] came out at 1.9 Fold change. In addition, the “Fold change, Proteasome subunit alpha type 2” value in assay [2] (gel spot 27) worked out at 6.1 Fold change; in assay [2] (gel spot 27, listed as fluoxetine), 6 Fold change. In addition, in assay [3], the “Fold change, Transcription Initiation factor IIA Gamma Chain” value was 2.5 Fold change. Besides, the “Fold change, Pyruvate Dehydrogenase E1 component beta subunit” value in assay [4] came out at 3.2 Fold change. In addition, the “Fold change, 60S Ribosomal Protein L18A” value in assay [5] was 1.8 Fold change. Moreover, the “Fold change, 60S Ribosomal Protein L35A” value in assay [6] worked out at 2.2 Fold change. The “Fold change, IGF-1 A precursor” value in assay [7] was 2.5 Fold change.

With `COc1ccc(C(CN(C)C)C2(O)CCCCC2)cc1` (stereo not shown) [Venlafaxine, venlafaxine], the “Fold change, Hippocampal Cholinergic Neurostimulating peptide (PEBP; HCNP)” value in assay [1] was 2 Fold change. In addition, the “Fold change, Proteasome subunit alpha type 2” value is recorded as 10.6 Fold change in assay [2] (gel spot 27) and 10 Fold change in assay [2] (gel spot 27, listed as venlafaxine). Moreover, the “Fold change, Transcription Initiation factor IIA Gamma Chain” value in assay [3] is reported as 2.4 Fold change. Moreover, the “Fold change, Pyruvate Dehydrogenase E1 component beta subunit” value in assay [4] is given as 2.6 Fold change. For the same molecule, the “Fold change, 60S Ribosomal Protein L18A” value in assay [5] was determined as 2.9 Fold change. Besides, the “Fold change, 60S Ribosomal Protein L35A” value in assay [6] amounted to 2.5 Fold change. Moreover, in assay [7], the “Fold change, IGF-1 A precursor” value is on record as 2.9 Fold change.
